Reference: paper PMC6420960 (Science translational medicine, 2015)
Entries after “also recorded” stand apart in the source; their conditions may differ. Where a name gives a salt, the structure may show the parent alone. Read-outs that look alike come from different tables or passages of the source.

Tests used:
[1] = system: HCV-Luc; test: In vitro combination evaluation; conditions: for CalcuSyn CI value: in combination with (S)-CCZ at or near their EC50 values; for MacSynergy Log volume: in combination with (S)-CCZ, Bliss independence model
[2] = biological target: H1-histamine receptor (Homo sapiens, UniProt P35367); test: β-arrestin H1-histamine receptor assay; type: cell-based
Chain of H1-histamine receptor (P35367 whole entry): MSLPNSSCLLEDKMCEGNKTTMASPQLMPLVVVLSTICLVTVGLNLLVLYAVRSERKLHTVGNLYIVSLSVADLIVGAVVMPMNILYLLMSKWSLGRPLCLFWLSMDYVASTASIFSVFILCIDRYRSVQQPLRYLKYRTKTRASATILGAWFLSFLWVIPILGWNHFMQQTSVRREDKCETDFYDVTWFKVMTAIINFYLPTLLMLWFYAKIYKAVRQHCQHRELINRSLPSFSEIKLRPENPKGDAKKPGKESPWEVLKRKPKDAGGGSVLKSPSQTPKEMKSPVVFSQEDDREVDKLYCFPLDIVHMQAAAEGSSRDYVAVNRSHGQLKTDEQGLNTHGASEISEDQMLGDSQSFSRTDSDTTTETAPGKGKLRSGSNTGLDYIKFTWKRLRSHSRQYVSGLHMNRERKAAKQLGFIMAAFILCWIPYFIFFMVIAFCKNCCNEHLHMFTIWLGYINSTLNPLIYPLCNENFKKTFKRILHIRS

[3] = ATPlite assay; conditions: human, Huh7.5.1 cells
[4] = system: HCV-Luc; test: HCV-Luc infection assay; conditions: for EC90: read-out: HCV-Luc EC90; for anti-HCV activity (in words): NPC screen / confirmation assays; for selectivity ratio: human
[5] = system: HIV; conditions: cited from earlier work
[6] = system: wild-type HCVcc (genotype 2a, JFH-1 strain); type: cell-based, Hepatitis C virus; conditions: 10 μM; compared with DMSO treatment
[7] = system: Huh7.5.1 cells
[8] = Microsomal stability assay, human microsomes; type: in vitro ADME
[9] = Microsomal stability assay, mouse microsomes; type: in vitro ADME
[10] = system: HCV-Luc; test: Time-of-addition experiment; type: cell-based, Hepatitis C virus; conditions: for inhibitory kinetics, time-of-addition profile: bafilomycin A1 10 nM, sofosbuvir 10 μM, 2-hour incubations; for effect on viral level, time of addition: treatment during the attachment step
[11] = Mouse pharmacokinetics and tissue distribution, single intraperitoneal dose; conditions: for brain levels (in words): (S)-CCZ 50 mg/kg, (S)-nor-CCZ 10 mg/kg, single intraperitoneal dose
[12] = biological target: HCV-Luc; test: HCV-Luc assay in 40% human serum; type: cell-based, Hepatitis C virus; conditions: read-out: protein binding adjusted EC50
[13] = system: HCV genotype 1b; type: in vivo, Alb-uPA/SCID mice engrafted with primary human hepatocytes
[14] = system: HCV chimeric genotype viruses (1a, 1b, 2a, 2b, 3a, 4a, 5a, 6a, and 7a); test: HCV chimeric genotype virus infection of Huh7.5.1 cells; type: cell-based, Hepatitis C virus; conditions: 10 μM
[15] = system: dengue reporter virus particle; test: Dengue reporter virus particle; type: cell-based; conditions: read-out: EC50 in dengue RVP assay
[16] = system: Huh7.5.1 cells; remark: listed apart in the source
[17] = system: wild-type HCVcc; type: cell-based, Hepatitis C virus; conditions: primary human hepatocytes; titration, dose-dependent manner
[18] = system: hepatitis B virus, HCV replicon, herpes simplex virus-1, human cytomegalovirus, vaccinia virus, dengue virus, influenza A (H1N1) virus, respiratory syncytial …; type: cell-based
[19] = system: genotype 1b and 2a HCV replicon cell lines; type: cell-based, Hepatitis C virus; conditions: 10 μM
[20] = system: HCVsc, genotype 2a; type: cell-based, Hepatitis C virus; conditions: 10 μM
[21] = Cytotoxicity in the dengue RVP assay; type: cell-based
[22] = day 28
[23] = system: HCVpp genotype 1a and 1b; type: cell-based, Hepatitis C virus; conditions: 10 μM; Huh7.5.1 cells
[24] = system: genotype 1a replicon in Huh7.5.1 cells; type: cell-based, Hepatitis C virus; conditions: 10 μM
[25] = mouse, in vivo, ip, 10 mg/kg
[26] = read-out: HCV-Luc EC50, Huh7.5.1 cells, luciferase signal 48 hours after treatment
[27] = Huh7.5.1 cells, luciferase signal 48 hours after treatment

CCC[C@H](NC(=O)[C@@H]1[C@H]2CCC[C@H]2CN1C(=O)[C@@H](NC(=O)[C@@H](NC(=O)c1cnccn1)C1CCCCC1)C(C)(C)C)C(=O)C(=O)NC1CC1 [Telaprevir]
CalcuSyn CI value [1]: 0.426 ± 0.138 | MacSynergy Log volume [1]: +++ (strong synergy (log volume ≥ 9))

COC(=O)N[C@H](C(=O)N1CCC[C@H]1c1nc(-c2ccc(-c3ccc(-c4c[nH]c([C@@H]5CCCN5C(=O)[C@@H](NC(=O)OC)C(C)C)n4)cc3)cc2)c[nH]1)C(C)C [Daclatasvir]
CalcuSyn CI value [1]: 0.427 ± 0.142 | MacSynergy Log volume [1]: +++ (strong synergy (log volume ≥ 9))

NC(=O)c1ncn([C@@H]2O[C@H](CO)[C@@H](O)[C@H]2O)n1 [Ribavirin]
CalcuSyn CI value [1]: 0.630 ± 0.106 | MacSynergy Log volume [1]: +++ (strong synergy (log volume ≥ 9))

CN1CCN(C(c2ccccc2)c2ccc(Cl)cc2)CC1 (racemic) [Racemic CCZ, chlorcyclizine HCl]
Antihistamine activity at 10 nM [2]: 72.60% | CC50 [3]: 49800 ± 17200 nM | EC50 ([4]; Hepatitis C virus): ~50 nM | EC50 ([4]; Hepatitis C virus, Huh-7.5.1, 48 h, read-out: HCV-Luc EC50): 44 ± 11 nM | EC90 ([4]; Hepatitis C virus, Huh-7.5.1, 48 h): 1400 ± 450 nM | activity against HIV [5]: reported activity against HIV | Intracellular and extracellular viral RNA levels [6]: significantly reduced

Clc1ccc(Cn2c(CN3CCCC3)nc3ccccc32)cc1 [clemizole]
anti-HCV activity (in words) [4]: much less potent activity

CN1CCCN(C(c2ccccc2)c2ccc(Cl)cc2)CC1 (stereo not shown) [homochlorcyclizine]
EC50 ([4]; Hepatitis C virus): ~50 nM | selectivity ratio [4]: 318 to 924

CN1CCN([C@H](c2ccccc2)c2ccc(Cl)cc2)CC1 [(R)-CCZ]
Antihistamine activity at 10 nM [2]: 88.00% | CC50 [7]: 37500 ± 4150 nM | EC50 [4, 26]: 20 ± 5 nM | EC90 [4, 27]: 1090 ± 370 nM | Intracellular and extracellular viral RNA levels [6]: significantly reduced

Clc1ccc(C(c2ccccc2)N2CCNCC2)cc1 (stereo not shown) [nor-CCZ, nor-chlorcyclizine]
half-life [8]: > 1.67 h | cytotoxicity compared with CCZ (in words) [7]: higher cytotoxicity | T1/2 in mice (microsomes) relative to CCZ [9]: more than fourfold longer | anti-HCV activity (in words) [4]: comparable to that of CCZ | selectivity ratio [4]: 188

CO/C1=C\C(C)=C\[C@@H](C)[C@@H](O)[C@@H](C)C/C(C)=C/C=C/[C@H](OC)[C@@H]([C@@H](C)[C@@H](O)[C@H](C)[C@@]2(O)C[C@@H](O)[C@H](C)[C@@H](C(C)C)O2)OC1=O [Bafilomycin A1]
inhibitory kinetics, time-of-addition profile [10]: only showed significant inhibitory effect when added during the first 2 hours of synchronous entry | effect on viral level, time of addition [10]: no effect on viral level

CC(C)OC(=O)[C@H](C)N[P@](=O)(OC[C@H]1O[C@@H](n2ccc(=O)[nH]c2=O)[C@](C)(F)[C@@H]1O)Oc1ccccc1 [Sofosbuvir]
inhibitory kinetics, time-of-addition profile [10]: inhibited HCVcc infection when added at all the time points except during the attachment stage | effect on viral level, time of addition [10]: no effect on viral level | CalcuSyn CI value [1]: 0.362 ± 0.075 | MacSynergy Log volume [1]: +++ (strong synergy (log volume ≥ 9))

NCCc1c[nH]cn1 [Histamine]
anti-HCV activity (in words) [4]: no anti-HCV activity; also recorded: no effect on HCV infection

O=C(O)COCCN1CCN(C(c2ccccc2)c2ccc(Cl)cc2)CC1 (stereo not shown) [Cetirizine]
anti-HCV activity (in words) [4]: not active

OCCOCCN1CCN(C(c2ccccc2)c2ccc(Cl)cc2)CC1 (stereo not shown) [hydroxyzine]
EC50 ([4]; Hepatitis C virus): ~50 nM | selectivity ratio [4]: 318 to 924

IFN-α
CalcuSyn CI value [1]: 0.609 ± 0.128 | MacSynergy Log volume [1]: +++ (strong synergy (log volume ≥ 9))

CN1CCN([C@@H](c2ccccc2)c2ccc(Cl)cc2)CC1 [(S)-CCZ]
ratio of liver to plasma ([11]; 50 mg/kg intraperitoneal, assuming liver density 1.0 g/ml): 29.6 | brain levels (in words) [11]: comparable to liver levels | EC50 [12]: 240 nM | decrease of genotype 1b virus titer ([13]; 2 mg/kg daily for 4 weeks): about 1 log | reduction of HCV titers from pretreatment baseline ([13]; 50 and 10 mg/kg daily for 4 weeks, genotype 1b): 2 log | HCV titers during the treatment period (drug resistance) ([13]; genotype 1b and 2a infections): without rebound | Antihistamine activity at 10 nM [2]: 41.70% | extracellular HCV RNA levels and infectivity (TCID50/ml) [14]: inhibited | EC50 [15]: 1880 nM | cytotoxicity after continuous treatment for 21 days ([16]; 10 μM): low cytotoxicity | cytotoxicity after continuous treatment for 21 days ([16]; 1.0 and 5.0 μM): no cytotoxicity | CC50 [7]: 33400 ± 2440 nM | intracellular HCV RNA level [17]: inhibited | antiviral activity in NIAID antiviral screen [18]: little or no antiviral activity | inhibitory effect on HCV replicon [19]: did not exert a significant inhibitory effect | inhibitory activity in the HCVsc assay [20]: strong inhibitory activity | EC50 [4, 26]: 24 ± 9 nM | EC90 [4, 27]: 1440 ± 430 nM | CC50 [21]: > 31600 nM | inhibition of infection, time of addition ([10]; added 2 or 3 hours after entry): no significant inhibition | inhibition of infection, time of addition ([10]; added 1 hour after synchronous entry): Less inhibitory effect | inhibition of infection, time of addition ([10]; added during viral attachment at 4°C for 2 hours or during the first 2 hours of synchronous entry at 37°C): potent inhibition | liver to plasma ratio ([22]; 2 mg/kg group): 38 | liver to plasma ratio ([22]; 10 mg/kg group): 41 | liver concentration ([22]; (S)-CCZ dose of 2 mg/kg): 0.342 µM | liver concentration ([22]; (S)-CCZ dose of 10 mg/kg): 2.66 µM | inhibitory effect on HCVpp entry [23]: no significant inhibitory effect | HCV replication, transient replicon [24]: not inhibited | Intracellular and extracellular viral RNA levels [6]: significantly reduced

CN1CCN(C(c2ccccc2)c2ccccc2)CC1 [Cyclizine]
lower activity than CCZ ([4]; relative to CCZ): 10 fold

CC(C)(C)NC(=O)N[C@H](C(=O)N1C[C@H]2[C@@H]([C@H]1C(=O)NC(CC1CCC1)C(=O)C(N)=O)C2(C)C)C(C)(C)C (stereo partly shown) [Boceprevir]
CalcuSyn CI value [1]: 0.691 ± 0.114 | MacSynergy Log volume [1]: +++ (strong synergy (log volume ≥ 9))

NC(=O)COCCN1CCN(C(c2ccccc2)c2ccc(Cl)cc2)CC1 (stereo not shown) [cetirizine amide]
EC50 [4, 26]: 103 nM

O[C@H]1[C@H]2c3cc4c(cc3CN3CCC(=C[C@@H]1O)[C@H]23)OCO4 [Lycorine-HCl, reference compound]
EC50 [15]: 40.6 nM | CC50 [21]: > 31600 nM

Clc1ccc([C@H](c2ccccc2)N2CCNCC2)cc1 [(S)-Nor-CCZ]
ratio of average concentration in liver to plasma ([11]; 10 mg/kg intraperitoneal): 60.7 | brain levels (in words) [11]: comparable to liver levels | Antihistamine activity at 10 nM [2]: 2.24% | CC50 [7]: 9310 ± 40 nM | EC50 [4, 26]: 34 ± 12 nM | EC90 [4, 27]: 578 ± 99 nM | liver concentration ([22]; (S)-CCZ dose of 2 mg/kg): 3.16 µM | liver concentration ([22]; (S)-CCZ dose of 10 mg/kg): 12.1 µM | T1/2 compared to (S)-CCZ (in words) [25]: longer T1/2
